From the NIST ThermoML archive (doi:10.1016/j.jct.2003.09.013)
Where “and” joins values, the source holds several entries; their conditions need not be identical. Equal entries are not always repeated.

Assay: mn = molality of the nth substance listed, in mol/kg
Details: 350 kPa, Liquid; for molar volume: Vibrating tube method; for apparent molar heat capacity: Extra sensitive DSC

O=[N+]([O-])[O-].O=[N+]([O-])[O-].[Pb+2] [lead(II) nitrate] + O
Details	apparent molar heat capacity [J/K/mol]	apparent molar volume	molar volume
278.15 K, m1 = 0.01959	–	3.11e-05 m3/mol	3.11e-05 m3/mol
278.15 K, m1 = 0.01983	–	3.8e-05 m3/mol	3.8e-05 m3/mol
278.15 K, m1 = 0.02999	–	3.7e-05 m3/mol and 3.36e-05 m3/mol	3.7e-05 m3/mol and 3.36e-05 m3/mol
278.15 K, m1 = 0.04862	–	3.8e-05 m3/mol	3.8e-05 m3/mol
278.15 K, m1 = 0.05035	–	3.73e-05 m3/mol	3.73e-05 m3/mol
278.15 K, m1 = 0.1004	–	3.52e-05 m3/mol and 4.01e-05 m3/mol	4.01e-05 m3/mol and 3.52e-05 m3/mol
278.15 K, m1 = 0.2435	–	3.781e-05 m3/mol	3.781e-05 m3/mol
278.15 K, m1 = 0.392	–	3.95e-05 m3/mol	3.95e-05 m3/mol
278.15 K, m1 = 0.4885	–	4.08e-05 m3/mol	4.08e-05 m3/mol
283.15 K, m1 = 0.01959	–	3.4e-05 m3/mol	3.4e-05 m3/mol
283.15 K, m1 = 0.01983	–	3.8e-05 m3/mol	3.8e-05 m3/mol
283.15 K, m1 = 0.02999	–	3.9e-05 m3/mol and 3.62e-05 m3/mol	3.9e-05 m3/mol and 3.62e-05 m3/mol
283.15 K, m1 = 0.04862	–	3.9e-05 m3/mol	3.9e-05 m3/mol
283.15 K, m1 = 0.05035	–	3.93e-05 m3/mol	3.93e-05 m3/mol
283.15 K, m1 = 0.1004	–	4.14e-05 m3/mol and 3.73e-05 m3/mol	4.14e-05 m3/mol and 3.73e-05 m3/mol
283.15 K, m1 = 0.2435	–	3.976e-05 m3/mol	3.976e-05 m3/mol
283.15 K, m1 = 0.392	–	4.126e-05 m3/mol	4.126e-05 m3/mol
283.15 K, m1 = 0.4885	4.5	4.243e-05 m3/mol	4.243e-05 m3/mol
288.15 K, m1 = 0.01959	–	3.508e-05 m3/mol	3.508e-05 m3/mol
288.15 K, m1 = 0.01983	–	3.8e-05 m3/mol	3.8e-05 m3/mol
288.15 K, m1 = 0.02999	–	3.9e-05 m3/mol and 3.71e-05 m3/mol	3.9e-05 m3/mol and 3.71e-05 m3/mol
288.15 K, m1 = 0.04862	–	3.96e-05 m3/mol	3.96e-05 m3/mol
288.15 K, m1 = 0.05035	–	4.05e-05 m3/mol	4.05e-05 m3/mol
288.15 K, m1 = 0.1004	–	4.12e-05 m3/mol and 3.851e-05 m3/mol	4.12e-05 m3/mol and 3.851e-05 m3/mol
288.15 K, m1 = 0.2435	–	4.073e-05 m3/mol	4.073e-05 m3/mol
288.15 K, m1 = 0.392	–	4.246e-05 m3/mol	4.246e-05 m3/mol
288.15 K, m1 = 0.4885	12.8	4.323e-05 m3/mol	4.323e-05 m3/mol
293.15 K, m1 = 0.4885	18.6	–	–
298.15 K, m1 = 0.01959	–	3.86e-05 m3/mol	3.86e-05 m3/mol
298.15 K, m1 = 0.01983	–	4.1e-05 m3/mol	4.1e-05 m3/mol
298.15 K, m1 = 0.02999	–	4.19e-05 m3/mol and 3.835e-05 m3/mol	4.19e-05 m3/mol and 3.835e-05 m3/mol
298.15 K, m1 = 0.04862	–	4.22e-05 m3/mol	4.22e-05 m3/mol
298.15 K, m1 = 0.05035	–	4.377e-05 m3/mol	4.377e-05 m3/mol
298.15 K, m1 = 0.1004	–	4.33e-05 m3/mol and 4.134e-05 m3/mol	4.33e-05 m3/mol and 4.134e-05 m3/mol
298.15 K, m1 = 0.2435	–	4.368e-05 m3/mol	4.368e-05 m3/mol
298.15 K, m1 = 0.392	2.9	4.54e-05 m3/mol	4.54e-05 m3/mol
298.15 K, m1 = 0.4885	22.3	4.567e-05 m3/mol	4.567e-05 m3/mol
303.15 K, m1 = 0.392	6	–	–
303.15 K, m1 = 0.4885	24.9	–	–
308.15 K, m1 = 0.01959	–	4.027e-05 m3/mol	4.027e-05 m3/mol
308.15 K, m1 = 0.01983	–	4.04e-05 m3/mol	4.04e-05 m3/mol
308.15 K, m1 = 0.02999	–	4.2e-05 m3/mol and 3.7e-05 m3/mol	4.2e-05 m3/mol and 3.7e-05 m3/mol
308.15 K, m1 = 0.04862	–	4.27e-05 m3/mol	4.27e-05 m3/mol
308.15 K, m1 = 0.05035	–	4.631e-05 m3/mol	4.631e-05 m3/mol
308.15 K, m1 = 0.1004	–	4.39e-05 m3/mol and 4.262e-05 m3/mol	4.39e-05 m3/mol and 4.262e-05 m3/mol
308.15 K, m1 = 0.2435	–	4.56e-05 m3/mol	4.56e-05 m3/mol
308.15 K, m1 = 0.392	8.2	4.698e-05 m3/mol	4.698e-05 m3/mol
308.15 K, m1 = 0.4885	26.6	4.739e-05 m3/mol	4.739e-05 m3/mol
313.15 K, m1 = 0.392	9.6	–	–
313.15 K, m1 = 0.4885	27.7	–	–
318.15 K, m1 = 0.01959	–	4.413e-05 m3/mol	4.413e-05 m3/mol
318.15 K, m1 = 0.01983	–	4.13e-05 m3/mol	4.13e-05 m3/mol
318.15 K, m1 = 0.02999	–	4.23e-05 m3/mol and 3.71e-05 m3/mol	4.23e-05 m3/mol and 3.71e-05 m3/mol
318.15 K, m1 = 0.04862	–	4.32e-05 m3/mol	4.32e-05 m3/mol
318.15 K, m1 = 0.05035	–	4.763e-05 m3/mol	4.763e-05 m3/mol
318.15 K, m1 = 0.1004	–	4.49e-05 m3/mol and 4.36e-05 m3/mol	4.49e-05 m3/mol and 4.36e-05 m3/mol
318.15 K, m1 = 0.2435	–	4.709e-05 m3/mol	4.709e-05 m3/mol
318.15 K, m1 = 0.392	10.3	4.824e-05 m3/mol	4.824e-05 m3/mol
318.15 K, m1 = 0.4885	27.8	4.881e-05 m3/mol	4.881e-05 m3/mol
323.15 K, m1 = 0.392	10.5	–	–
323.15 K, m1 = 0.4885	27.8	–	–
328.15 K, m1 = 0.01959	–	4.522e-05 m3/mol	4.522e-05 m3/mol
328.15 K, m1 = 0.01983	–	4.163e-05 m3/mol	4.163e-05 m3/mol
328.15 K, m1 = 0.02999	–	4.215e-05 m3/mol and 3.58e-05 m3/mol	4.215e-05 m3/mol and 3.58e-05 m3/mol
328.15 K, m1 = 0.04862	–	4.365e-05 m3/mol	4.365e-05 m3/mol
328.15 K, m1 = 0.05035	–	4.871e-05 m3/mol	4.871e-05 m3/mol
328.15 K, m1 = 0.1004	–	4.523e-05 m3/mol and 4.39e-05 m3/mol	4.523e-05 m3/mol and 4.39e-05 m3/mol
328.15 K, m1 = 0.2435	–	4.806e-05 m3/mol	4.806e-05 m3/mol
328.15 K, m1 = 0.392	10.3	4.911e-05 m3/mol	4.911e-05 m3/mol
328.15 K, m1 = 0.4885	27.3	4.978e-05 m3/mol	4.978e-05 m3/mol
333.15 K, m1 = 0.392	10	–	–
333.15 K, m1 = 0.4885	26.8	–	–
338.15 K, m1 = 0.01959	–	4.5e-05 m3/mol	4.5e-05 m3/mol
338.15 K, m1 = 0.01983	–	4.114e-05 m3/mol	4.114e-05 m3/mol
338.15 K, m1 = 0.02999	–	4.265e-05 m3/mol and 3.58e-05 m3/mol	4.265e-05 m3/mol and 3.58e-05 m3/mol
338.15 K, m1 = 0.04862	–	4.42e-05 m3/mol	4.42e-05 m3/mol
338.15 K, m1 = 0.05035	–	4.942e-05 m3/mol	4.942e-05 m3/mol
338.15 K, m1 = 0.1004	–	4.599e-05 m3/mol and 4.45e-05 m3/mol	4.599e-05 m3/mol and 4.45e-05 m3/mol
338.15 K, m1 = 0.2435	–	4.89e-05 m3/mol	4.89e-05 m3/mol
338.15 K, m1 = 0.392	9.1	4.981e-05 m3/mol	4.981e-05 m3/mol
338.15 K, m1 = 0.4885	25.9	5.059e-05 m3/mol	5.059e-05 m3/mol
343.15 K, m1 = 0.392	8	–	–
343.15 K, m1 = 0.4885	24.7	–	–
348.15 K, m1 = 0.01959	–	4.33e-05 m3/mol	4.33e-05 m3/mol
348.15 K, m1 = 0.02999	–	3.57e-05 m3/mol	3.57e-05 m3/mol
348.15 K, m1 = 0.05035	–	4.93e-05 m3/mol	4.93e-05 m3/mol
348.15 K, m1 = 0.1004	–	4.662e-05 m3/mol and 4.47e-05 m3/mol	4.662e-05 m3/mol and 4.47e-05 m3/mol
348.15 K, m1 = 0.2435	–	4.92e-05 m3/mol	4.92e-05 m3/mol
348.15 K, m1 = 0.392	6.7	5.034e-05 m3/mol	5.034e-05 m3/mol
348.15 K, m1 = 0.4885	23.3	5.112e-05 m3/mol	5.112e-05 m3/mol
353.15 K, m1 = 0.392	5.2	–	–
353.15 K, m1 = 0.4885	22	–	–
358.15 K, m1 = 0.01959	–	4.397e-05 m3/mol	4.397e-05 m3/mol
358.15 K, m1 = 0.02999	–	3.55e-05 m3/mol	3.55e-05 m3/mol
358.15 K, m1 = 0.05035	–	4.866e-05 m3/mol	4.866e-05 m3/mol
358.15 K, m1 = 0.1004	–	4.48e-05 m3/mol and 4.513e-05 m3/mol	4.48e-05 m3/mol and 4.513e-05 m3/mol
358.15 K, m1 = 0.2435	–	4.929e-05 m3/mol	4.929e-05 m3/mol
358.15 K, m1 = 0.392	3.8	5.016e-05 m3/mol	5.016e-05 m3/mol
358.15 K, m1 = 0.4885	20.5	5.11e-05 m3/mol	5.11e-05 m3/mol
363.15 K, m1 = 0.392	2.1	–	–
363.15 K, m1 = 0.4885	18.8	–	–
368.15 K, m1 = 0.01959	–	4.451e-05 m3/mol	4.451e-05 m3/mol
368.15 K, m1 = 0.02999	–	3.49e-05 m3/mol	3.49e-05 m3/mol
368.15 K, m1 = 0.05035	–	4.751e-05 m3/mol	4.751e-05 m3/mol
368.15 K, m1 = 0.1004	–	4.02e-05 m3/mol and 4.44e-05 m3/mol	4.02e-05 m3/mol and 4.44e-05 m3/mol
368.15 K, m1 = 0.2435	–	4.902e-05 m3/mol	4.902e-05 m3/mol
368.15 K, m1 = 0.392	–	4.883e-05 m3/mol	4.883e-05 m3/mol
368.15 K, m1 = 0.4885	16.9	5.055e-05 m3/mol	5.055e-05 m3/mol
373.15 K, m1 = 0.4885	14.8	–	–
378.15 K, m1 = 0.4885	12.1	–	–
383.15 K, m1 = 0.4885	9.5	–	–
388.15 K, m1 = 0.4885	6.8	–	–
393.15 K, m1 = 0.4885	3.2	–	–
